Reference: PubChem BioAssay (NCI)
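At the GI50, growth is halved. The concentration for full growth arrest is given as TGI.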

Key:
Test in all cases: NCI-60 cell line screen, 384-well format
[1] = test system: SK-OV-3 ovarian
[2] = test system: HCC-2998 colon
[3] = test system: LOX IMVI melanoma
[4] = test system: RPMI-8226 leukemia
[5] = test system: OVCAR-4 ovarian
[6] = test system: SW-620 colon
[7] = test system: NCI-H226 lung
[8] = test system: CAKI-1 renal
[9] = test system: MALME-3M melanoma
[10] = test system: NCI-H23 lung
[11] = test system: 786-0 renal
[12] = test system: HOP-92 NSCLC
[13] = test system: SF-295 CNS
[14] = test system: SF-268 CNS
[15] = test system: ACHN renal
[16] = test system: M14 melanoma
[17] = test system: K-562 leukemia
[18] = test system: A498 renal
[19] = test system: MDA-MB-435 melanoma
[20] = test system: SK-MEL-2 melanoma
[21] = test system: NCI/ADR-RES ovarian
[22] = test system: OVCAR-5 ovarian
[23] = test system: BT-549 breast
[24] = test system: HOP-62 NSCLC
[25] = test system: DU-145 prostate
[26] = test system: NCI-H460 NSCLC
[27] = test system: SR leukemia
[28] = test system: TK-10 renal
[29] = test system: SN12C renal
[30] = test system: HL-60(TB) leukemia
[31] = test system: HCT-116 colon
[32] = test system: UACC-62 melanoma
[33] = test system: OVCAR-8 ovarian
[34] = test system: MDA-MB-468 breast
[35] = test system: SK-MEL-28 melanoma
[36] = test system: SNB-19 CNS
[37] = test system: RXF 393 renal
[38] = test system: HCT-15 colon
[39] = test system: U251 glioblastoma
[40] = test system: HT29 colon
[41] = test system: A549 NSCLC
[42] = test system: SK-MEL-5 melanoma
[43] = test system: COLO 205 colon
[44] = test system: NCI-H322M lung
[45] = test system: T-47D breast
[46] = test system: OVCAR-3 ovarian
[47] = test system: SF-539 CNS
[48] = test system: CCRF-CEM leukemia
[49] = test system: UACC-257 melanoma
[50] = test system: MCF7 breast
[51] = test system: NCI-H522 lung
[52] = test system: MDA-MB-231 breast
[53] = test system: PC-3 prostate
[54] = test system: MOLT-4 leukemia
[55] = test system: KM12 colon
[56] = test system: IGROV1 ovarian

Molecule `Cc1c(CN2CCC(Nc3ncnc4sc(CC(F)(F)F)cc34)CC2)ccc2c1cc(C#N)n2Cc1cn[nH]c1` has a GI50 [1] of 1.33 µM, a TGI [1] of 2.61 µM and a GI50 [2] of 0.391 µM. For the same molecule, the TGI [2] was 1.35 µM, the GI50 [3] was 2.06 µM and the TGI [3] was 3.49 µM. For the same molecule, the GI50 [4] was 0.107 µM, the TGI [4] was 0.77 µM and the GI50 [5] was 0.93 µM. The TGI [5] was 2.14 µM, the GI50 [6] was 1.31 µM and the TGI [6] was 2.6 µM. It also gave a GI50 [7] of 1.3 µM, a TGI [7] of 2.61 µM and a GI50 [8] of 1.42 µM. It also gave a TGI [8] of 2.73 µM, a GI50 [9] of 1.36 µM and a TGI [9] of 2.65 µM. The GI50 [10] was 0.275 µM, the TGI [10] was 1.42 µM and the GI50 [11] was 1.16 µM. The TGI [11] was 2.39 µM, the GI50 [12] was 1.33 µM and the TGI [12] was 2.61 µM. It also gave a GI50 [13] of 1.42 µM, a TGI [13] of 2.73 µM and a GI50 [14] of 1.31 µM. The TGI [14] was 2.59 µM, the GI50 [15] was 1.39 µM and the TGI [15] was 2.69 µM. It also gave a GI50 [16] of 1.62 µM, a TGI [16] of 2.98 µM and a GI50 [17] of 0.295 µM. For the same molecule, the TGI [17] was 1.11 µM, the GI50 [18] was 1.15 µM and the TGI [18] was 2.37 µM. For the same molecule, the GI50 [19] was 1.86 µM, the TGI [19] was 3.27 µM and the GI50 [20] was 1.33 µM. The TGI [20] was 2.6 µM, the GI50 [21] was 1.58 µM and the TGI [21] was 2.94 µM. It also gave a GI50 [22] of 1.73 µM, a TGI [22] of 3.12 µM and a GI50 [23] of 0.901 µM. It also gave a TGI [23] of 2.12 µM, a GI50 [24] of 1.16 µM and a TGI [24] of 2.39 µM. The GI50 [25] was 1.7 µM, the TGI [25] was 3.09 µM and the GI50 [26] was 0.409 µM. The TGI [26] was 1.63 µM, the GI50 [27] was 0.137 µM and the TGI [27] was 0.279 µM. The GI50 [28] was 1.33 µM, the TGI [28] was 2.62 µM and the GI50 [29] was 1.3 µM. The TGI [29] was 2.58 µM, the GI50 [30] was 0.627 µM and the TGI [30] was 1.68 µM. The GI50 [31] was 0.417 µM, the TGI [31] was 1.61 µM and the GI50 [32] was 1.65 µM. The TGI [32] was 3.02 µM, the GI50 [33] was 1.5 µM and the TGI [33] was 2.84 µM. It also gave a GI50 [34] of 0.327 µM, a TGI [34] of 1.13 µM and a GI50 [35] of 1.85 µM. It also gave a TGI [35] of 3.26 µM, a GI50 [36] of 1.67 µM and a TGI [36] of 3.04 µM. The GI50 [37] was 0.219 µM, the TGI [37] was 0.709 µM and the GI50 [38] was 1.23 µM. The TGI [38] was 2.49 µM, the GI50 [39] was 0.73 µM and the TGI [39] was 2 µM. The GI50 [40] was 0.318 µM, the TGI [40] was 1.27 µM and the GI50 [41] was 1.35 µM. The TGI [41] was 2.67 µM, the GI50 [42] was 0.402 µM and the TGI [42] was 1.54 µM. The GI50 [43] was 1.42 µM, the TGI [43] was 2.74 µM and the GI50 [44] was 0.954 µM. It also gave a TGI [44] of 2.15 µM, a GI50 [45] of 0.247 µM and a TGI [45] of 1.44 µM. For the same molecule, the GI50 [46] was 1.23 µM, the TGI [46] was 2.48 µM and the GI50 [47] was 1.33 µM. The TGI [47] was 2.62 µM, the GI50 [48] was 0.668 µM and the TGI [48] was 1.96 µM. The GI50 [49] was 0.772 µM, the TGI [49] was 2.06 µM and the GI50 [50] was 1.02 µM. For the same molecule, the TGI [50] was 2.19 µM, the GI50 [51] was 1.39 µM and the TGI [51] was 2.68 µM. The GI50 [52] was 1.36 µM, the TGI [52] was 2.65 µM and the GI50 [53] was 1.3 µM. The TGI [53] was 2.58 µM, the GI50 [54] was 0.486 µM and the TGI [54] was 1.69 µM. It also gave a GI50 [55] of 1.28 µM, a TGI [55] of 2.56 µM and a GI50 [56] of 1.35 µM. The TGI [56] was 3.4 µM.
